Measurements reported in patent US4209521A, “Anti-depressant indole derivatives” (John Wyeth & Brother Limited, priority 1977, dated 1980).
“Also recorded” adds a separate entry of the source.

Key:
[1] = tested on: neuronal uptake of noradrenaline into slices of cerebral cortex; test: Inhibition of noradrenaline uptake in brain slices; assay type: cell-based, rat; settings: for Potency Ratio (imipramine = 1.0) Noradrenaline: inhibition of noradrenaline uptake, rat cerebral cortex slices, relative to imipramine = 1.0; for Inhibition of noradrenaline uptake (in words): qualitative
From the text: Concentration-response curves are obtained both for the test compound and for the standard agent, imipramine. The potency of each test compound is expressed in proportion to that of imipramine. Thus, the potency ratio for the test compound= [formula]

[2] = tested on: uptake of 5-hydroxytryptamine in slices of cerebral cortex; test: Inhibition of 5-hydroxytryptamine uptake in brain slices; assay type: cell-based, rat; settings: for Potency Ratio (imipramine = 1.0) 5-Hydroxytryptamine: inhibition of 5-hydroxytryptamine uptake, rat cerebral cortex slices, relative to imipramine = 1.0; for Inhibition of 5-hydroxytryptamine uptake (in words): qualitative
Experimental: The effects of test compounds on the neuronal uptake of noradrenaline into slices of cerebral cortex prepared from rat brain is determined according to the method described by Snyder, Green and Hendley, Kinetics of H^3 -norepihephrine accumulation into slices from different regions of the rat brain (J. Pharm. exp. Therap. 164: 90-102) (1968). The effects of test compounds on the uptake of 5-hydroxytryptamine is obtained in a similar manner except that H^3 5-hydroxytryptamine is used in place of H^3 noradrenaline. Concentration-response curves are obtained both for the test compound and for the standard agent, imipramine. The potency of each test compound is expressed in proportion to that of imipramine. Thus, the potency ratio for the test compound= [formula]

[3] = tested on: hypertensive rats; test: Anti-hypertensive activity in deoxycorticosterone acetate hypertensive rats; assay type: in vivo, rat; settings: for Reduction of blood pressure (in words): hypertensive rats, p.o., qualitative
Experimental: Female rats are rendered hypertensive by unilateral nephrectomy and the s.c. implantation of a pellet containing 30 mg of deoxycorticosterone acetate. The drinking water is replaced by normale saline ad lib for the first four weeks following preparation. Blood pressure stabilise at a hypertensive level after 6 weeks. Systolic pressure is measured indirectly before dosing with a test compound using an E and M pneumatic pulse transducer and a Devices MX2 recorder. Groups of 4 rats are dosed orally with suspensions or solutions of the test compound in 0.5% hydroxypropyl-methyl-cellulose 0.9% saline vehicle. Blood pressures are recorded again at 2, 6 and 24 hours and the results, expressed as a percentage of the pre-dose values compared with those of a similar group of rats receiving vehicle alone.

[4] = tested on: hypertensive rats; test: Another procedure for determining anti-hypertensive activity in hypertensive rats; assay type: in vivo, rat; settings: qualitative
[5] = tested on: mice (CF-1); test: CNS Activity (Effect on Behaviour of Mice); assay type: in vivo, mouse (CF-1)
Experimental: The test compounds are administered orally to three mice (CF-1 14 to 24 grams) at each of the following doses: 400, 127, 40 and 12.7 mg/kg. The animals are watched for two hours during which time signs of general stimulation (i.e. increased spontaneous motor activity, hyperactivity on tactile stimulation, twitching), general depression (i.e. decreased spontaneous motor activity, decreased respiration) and autonomic activity (i.e. miosis, mydriasis, diarrhoea) are noted.

[6] = tested on: mice; test: Motor Activity (Exploratory behaviour in mice); assay type: in vivo, mouse; settings: i.p., qualitative
Experimental: The test compounds were administered i.p. to mice (3 groups of 4 per dose) at time 0. Seventy minutes later the animals were transferred to square boxes placed beneath the detector heads of Aktograph activity monitors. The exploratory activity of the mice was counted over the following 20 minute period.

[7] = tested on: post-synaptic 5HT receptor; test: 5HT Antagonism in Vitro (isolated rat ileum); assay type: cell-based
[8] = 50 mg/kg p.o., 2 hr after dosing
[9] = 50 mg/kg p.o., 6 hr after dosing
[10] = 50 mg/kg p.o., 24 hr after dosing
[11] = 10 mg/kg p.o., 2 hr after dosing
[12] = 10 mg/kg p.o., 6 hr after dosing
[13] = 10 mg/kg p.o., 24 hr after dosing
[14] = 25 mg/kg p.o., 2 hr after dosing
[15] = 25 mg/kg p.o., 6 hr after dosing
[16] = 25 mg/kg p.o., 24 hr after dosing
[17] = mice, oral, watched for two hours

## Cc1[nH]c2ccccc2c1CN1CCC(NC(=O)NC(=O)c2ccccc2)CC1 [Example 4, 1-Benzoyl-3-[1-([2-methylindol-3-yl]methyl)piperid-4-yl]urea]
[1]
  Potency Ratio (imipramine = 1.0) Noradrenaline: 0.16
[2]
  Potency Ratio (imipramine = 1.0) 5-Hydroxytryptamine: 0.8

## COc1cccc(C(=O)NC(=O)NC2CCN(Cc3c[nH]c4ccccc34)CC2)c1 [Example 11, 3-(3-Methoxybenzoyl)-1-(1-[indol-3-ylmethyl]piperid-4-yl)urea]
[2]
  Potency Ratio (imipramine = 1.0) 5-Hydroxytryptamine: 2.7

## COc1ccc(C(=O)NC(=O)NC2CCN(Cc3c[nH]c4ccccc34)CC2)cc1 [Example 6, 3-(4-methoxybenzoyl)-1-(1-[indol-3-ylmethyl]piperid-4-yl)urea]
[1]
  Potency Ratio (imipramine = 1.0) Noradrenaline: 0.06
[2]
  Potency Ratio (imipramine = 1.0) 5-Hydroxytryptamine: 5.0

## O=C(NC(=O)c1cccs1)NC1CCN(Cc2c[nH]c3ccccc23)CC1 [Example 3, 1-[1-(Indol-3-ylmethyl)piperid-4-yl]-3-(2-thenoyl)-urea]
[1]
  Potency Ratio (imipramine = 1.0) Noradrenaline: 0.19
[2]
  Potency Ratio (imipramine = 1.0) 5-Hydroxytryptamine: 7.8

## O=C(NC(=O)c1ccccc1)NC1CCN(Cc2c[nH]c3ccc(O)cc23)CC1 [Example 5, 1-Benzoyl-3-[1-([5-hydroxyindol-3-yl]methyl)piperid-4-yl]urea]
[1]
  Potency Ratio (imipramine = 1.0) Noradrenaline: 0.2
[2]
  Potency Ratio (imipramine = 1.0) 5-Hydroxytryptamine: 12.3

## O=C(NC(=O)c1ccccc1)NC1CCN(Cc2c[nH]c3ccccc23)CC1 [Compound I, 1-[1-(indol-3-ylmethyl)piperid-4-yl]-3-benzoyl urea]
[1]
  Potency Ratio (imipramine = 1.0) Noradrenaline: 0.06
  Inhibition of noradrenaline uptake (in words): weak inhibitors of noradrenaline uptake
[2]
  Potency Ratio (imipramine = 1.0) 5-Hydroxytryptamine: 10.0
  Inhibition of 5-hydroxytryptamine uptake (in words): potent inhibitors of 5HT uptake
[3]; [8]
  BP (systolic blood pressure): 90 % control
  HR (heart rate): 101 % control
[3]; [9]
  BP (systolic blood pressure): 102 % control
  HR (heart rate): 98 % control
[3]; [10]
  BP (systolic blood pressure): 106 % control
  HR (heart rate): 84 % control
[3]
  Reduction of blood pressure (in words): without significant activity; also recorded: does not induce marked CNS depression in animals or significantly reduce the blood pressure of hypertensive rats
[4]
  Anti-hypertensive activity (in words): moderate activity
[5]; mouse, in vivo
  CNS depression / signs of sedation (in words): does not induce marked CNS depression in animals
[5]; mouse, in vivo, po, 120 min
  Lowest Dose to induce effect: Decreased activity: 400 mg/kg p.o.
  Lowest Dose to induce effect: Slight weakness: 400 mg/kg p.o.
[6]
  Effect on exploratory behaviour (in words): virtually without effect
[7]; 10^-6 M, isolated rat ileum
  5HT antagonism: effect on responses of isolated rat ileum to 5-hydroxytryptamine: the responses to the subsequent administration of 5HT were not affected
  Direct effect on the isolated rat ileum preparation: caused the preparation to relax
[7]; in vitro, summary statement
  Antagonism of the post-synaptic 5HT receptor in vitro (in words): does not antagonise the post-synaptic 5HT receptor in vitro

## O=C(NC(=S)NC1CCN(Cc2c[nH]c3ccccc23)CC1)c1ccccc1 [Example 10, 1-[1-(Indol-3-ylmethyl)piperid-4-yl]-3-benzoylthiourea]
[2]
  Potency Ratio (imipramine = 1.0) 5-Hydroxytryptamine: 6.5

## O=C(NC(=O)c1ccc(F)cc1)NC1CCN(Cc2c[nH]c3ccccc23)CC1 [Example 8, 1-(4-Fluorobenzoyl)-3-(1-[indol-3-ylmethyl]piperid-4-yl)urea]
[1]
  Potency Ratio (imipramine = 1.0) Noradrenaline: 0.1
[2]
  Potency Ratio (imipramine = 1.0) 5-Hydroxytryptamine: 1.04

## O=C(NC(=O)c1ccccc1)NC1CCN(CCc2c[nH]c3ccccc23)CC1 [Compound II, 1-benzoyl-3-[1-(2-[3-indolyl]ethyl)piperid-4-yl]urea]
[1]
  Potency Ratio (imipramine = 1.0) Noradrenaline: 0.2
  Inhibition of noradrenaline uptake (in words): weak inhibitors of noradrenaline uptake
[2]
  Potency Ratio (imipramine = 1.0) 5-Hydroxytryptamine: 8.0
  Inhibition of 5-hydroxytryptamine uptake (in words): potent inhibitors of 5HT uptake
[3]; [11]
  BP (systolic blood pressure): 64 % control
  HR (heart rate): 109 % control
[3]; [12]
  BP (systolic blood pressure): 82 % control
  HR (heart rate): 96 % control
[3]; [13]
  BP (systolic blood pressure): 99 % control
  HR (heart rate): 97 % control
[3]; [14]
  BP (systolic blood pressure): 49 % control
  HR (heart rate): 119 % control
[3]; [15]
  BP (systolic blood pressure): 52 % control
  HR (heart rate): 104 % control
[3]; [16]
  BP (systolic blood pressure): 79 % control
  HR (heart rate): 97 % control
[3]; [8]
  BP (systolic blood pressure): 51 % control
  HR (heart rate): 105 % control
[3]; [9]
  BP (systolic blood pressure): 51 % control
  HR (heart rate): 90 % control
[3]; [10]
  BP (systolic blood pressure): 62 % control
  HR (heart rate): 96 % control
[3]
  Reduction of blood pressure (in words): marked reduction of blood pressure
[4]
  Anti-hypertensive activity (in words): marked activity
[5]; animals (mice), qualitative
  CNS depression / signs of sedation (in words): induced signs of sedation at doses considerably lower than those of compound I required to induce a similar effect
[5]; [17]
  Lowest Dose to induce effect: Ataxia: 127 mg/kg p.o.
  Lowest Dose to induce effect: Catalepsy: 400 mg/kg p.o.
  Lowest Dose to induce effect: Decreased activity: 4.0 mg/kg p.o.
  Lowest Dose to induce effect: Decreased respiration: 400 mg/kg p.o.
  Lowest Dose to induce effect: Ptosis: 40 mg/kg p.o.
[6]
  Effect on exploratory behaviour (in words): marked reduction of exploratory behaviour
[7]; 10^-6 M, isolated rat ileum
  5HT antagonism: effect on responses of isolated rat ileum to 5-hydroxytryptamine: non-competitive blockade

## COc1ccc2[nH]cc(CN3CCC(NC(=O)NC(=O)c4ccccc4)CC3)c2c1 [Example 2, 1-[1-(5-Methoxyindol-3-ylmethyl)piperid-4-yl]-3-benzoylurea]
[1]
  Potency Ratio (imipramine = 1.0) Noradrenaline: inactive
[2]
  Potency Ratio (imipramine = 1.0) 5-Hydroxytryptamine: 3.2
